Assay results as given in ChEMBL document CHEMBL1201862, “PubChem BioAssay data set” (2004).
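Values below derive from 48-hour exposures of cells grown in 96-well plates, with endpoints linearly interpolated between the two concentrations bracketing the appropriate inhibition level. GI50 is the concentration that inhibits growth by half.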 Activity calls are given as the source filed them. Cut-off read from the data, not from the text of the source: active = GI50 up to about 1.1 µM and inactive = higher. Where a SMILES comes first, the peptide text is derived from it. The star is where a group is joined. Fmoc = O=C(OCC1c2ccccc2-c2ccccc21)*; Boc = CC(C)(C)OC(=O)*

Experiments:
Assay in all cases: NCI anticancer screen, dose series, 48 h
[1] = system: NCI-H522
[2] = system: NCI-H226
[3] = system: SN12C
[4] = system: EKVX
[5] = system: HOP-62
[6] = system: TK-10
[7] = system: HT-29
[8] = system: UACC-62
[9] = system: NCI-H460
[10] = system: K562
[11] = system: OVCAR-3
[12] = system: A549
[13] = system: NCI-H23
[14] = system: UO-31
[15] = system: PC-3
[16] = system: IGROV-1
[17] = system: MCF7
[18] = system: DU-145
[19] = system: A498

SMILES	GI50 [1]	GI50 [2]	GI50 [3]	GI50 [4]	GI50 [5]	GI50 [6]	GI50 [7]	GI50 [8]	GI50 [9]	GI50 [10]	GI50 [11]	GI50 [12]	GI50 [13]	GI50 [14]	GI50 [15]	GI50 [16]	GI50 [17]	GI50 [18]	GI50 [19]
N#C/C(=C\c1ccc[nH]1)C(=O)c1ccccc1	> 100 µM (inactive)	> 100 µM (inactive)	> 100 µM (inactive)	> 100 µM (inactive)	> 100 µM (inactive)	> 100 µM (inactive)	> 100 µM (inactive)	> 100 µM (inactive)	> 100 µM (inactive)	> 100 µM (inactive)	> 100 µM (inactive)	> 100 µM (inactive)	> 100 µM (inactive)	> 100 µM (inactive)					
C[C@]12CCC(=O)C=C1CC[C@@H]1[C@@H]2CC[C@]2(C)C(=O)/C(=C/c3ccncc3)C[C@@H]12	15.3 µM (inactive)	16.9 µM (inactive)	16.7 µM (inactive)	14.6 µM (inactive)	14.6 µM (inactive)	18.1 µM (inactive)	10.2 µM (inactive)	12.7 µM (inactive)	12.3 µM (inactive)	11.7 µM (inactive)	13 µM (inactive)	16.4 µM (inactive)	18.3 µM (inactive)	12.6 µM (inactive)	12.4 µM (inactive)	21.2 µM (inactive)	11.5 µM (inactive)	14.5 µM (inactive)	
CCOC(=O)/C(C#N)=C\c1ccc(N(CCC(=O)O)CCC(=O)O)c(I)c1	> 10 µM (inactive)	> 10 µM (inactive)	> 10 µM (inactive)	> 10 µM (inactive)	> 10 µM (inactive)	> 10 µM (inactive)	> 10 µM (inactive)	> 10 µM (inactive)	> 10 µM (inactive)	> 10 µM (inactive)		> 10 µM (inactive)	> 10 µM (inactive)	> 10 µM (inactive)	> 10 µM (inactive)	> 10 µM (inactive)	> 10 µM (inactive)	> 10 µM (inactive)	
CNNC1=NS(=O)(=O)c2cc(C)c(Cl)cc2S1	> 10 µM (inactive)	> 10 µM (inactive)	> 10 µM (inactive)	> 10 µM (inactive)	> 10 µM (inactive)	> 10 µM (inactive)	> 10 µM (inactive)	> 10 µM (inactive)	> 10 µM (inactive)	> 10 µM (inactive)	> 10 µM (inactive)	> 10 µM (inactive)	> 10 µM (inactive)	0.0344 µM (active)	> 10 µM (inactive)	> 10 µM (inactive)		> 10 µM (inactive)	> 10 µM (inactive)
C/C(CN1C(=O)c2ccccc2C1=O)=N\NS(=O)(=O)c1ccccc1	> 100 µM (inactive)	> 100 µM (inactive)	> 100 µM (inactive)	> 100 µM (inactive)	> 100 µM (inactive)	> 100 µM (inactive)	> 100 µM (inactive)	> 100 µM (inactive)	> 100 µM (inactive)	> 100 µM (inactive)	> 100 µM (inactive)	> 100 µM (inactive)	> 100 µM (inactive)	> 100 µM (inactive)		> 100 µM (inactive)			> 100 µM (inactive)
CC(C)(C)OC(=O)NCCCCC(NC(=O)C(Cc1c[nH]c2ccccc12)NC(=O)OCC1c2ccccc2-c2ccccc21)C(=O)O (configuration not stated) (Fmoc-Trp-Lys(Boc)-OH; configuration not given here)		43.7 µM (inactive)	52.2 µM (inactive)	> 100 µM (inactive)	39.5 µM (inactive)	> 100 µM (inactive)	40.5 µM (inactive)	20.9 µM (inactive)	34.7 µM (inactive)	18.8 µM (inactive)	18.2 µM (inactive)	> 100 µM (inactive)	31 µM (inactive)	68.7 µM (inactive)	34.8 µM (inactive)	52.2 µM (inactive)	22.9 µM (inactive)	76.4 µM (inactive)	
COc1cc2cc3c4c(cc(OC)c(OC)c4c2cc1OC)CCN3C(=O)CCCC(=O)O	> 100 µM (inactive)	> 100 µM (inactive)	> 100 µM (inactive)	> 100 µM (inactive)	> 100 µM (inactive)	> 100 µM (inactive)	> 100 µM (inactive)	> 100 µM (inactive)	> 100 µM (inactive)	> 100 µM (inactive)	> 100 µM (inactive)	> 100 µM (inactive)	> 100 µM (inactive)	> 100 µM (inactive)		> 100 µM (inactive)			> 100 µM (inactive)
CC1=NNC(=O)C1C1CC(c2c[nH]c3ccccc23)=NN=C1Cl (configuration not stated)	45.8 µM (inactive)	74.1 µM (inactive)	82 µM (inactive)	70.8 µM (inactive)	> 100 µM (inactive)	> 100 µM (inactive)	40.9 µM (inactive)	85.7 µM (inactive)	34.6 µM (inactive)	28.4 µM (inactive)	62.1 µM (inactive)	57.4 µM (inactive)	39.4 µM (inactive)	31.2 µM (inactive)	56.5 µM (inactive)	20.6 µM (inactive)		> 100 µM (inactive)	> 100 µM (inactive)
COc1cc(C=C2C(=O)NC(=S)NC2=O)cc(OC)c1OC		> 100 µM (inactive)	> 100 µM (inactive)	> 100 µM (inactive)	> 100 µM (inactive)	> 100 µM (inactive)	> 100 µM (inactive)	> 100 µM (inactive)	> 100 µM (inactive)	> 100 µM (inactive)	> 100 µM (inactive)	> 100 µM (inactive)	> 100 µM (inactive)	> 100 µM (inactive)	> 100 µM (inactive)	> 100 µM (inactive)	> 100 µM (inactive)	> 100 µM (inactive)	
Cc1ccccc1C1SCc2nc3ccccc3n21 (configuration not stated)	21.8 µM (inactive)	60.3 µM (inactive)	> 100 µM (inactive)	> 100 µM (inactive)		> 100 µM (inactive)		7.28 µM (inactive)		3.77 µM (inactive)	> 100 µM (inactive)	> 100 µM (inactive)	12.8 µM (inactive)	> 100 µM (inactive)		> 100 µM (inactive)			
Cc1oc2nc(N(C)C)n3nnnc3c2c1C	> 100 µM (inactive)	> 100 µM (inactive)	> 100 µM (inactive)	> 100 µM (inactive)		> 100 µM (inactive)	> 100 µM (inactive)	49.9 µM (inactive)		> 100 µM (inactive)		> 100 µM (inactive)	> 100 µM (inactive)	30.3 µM (inactive)		> 100 µM (inactive)	> 100 µM (inactive)	> 100 µM (inactive)	76.2 µM (inactive)
O=C1NC(=S)NC1C(Cc1ccccc1)c1ccco1 (configuration not stated)	> 100 µM (inactive)	> 100 µM (inactive)	> 100 µM (inactive)	> 100 µM (inactive)		> 100 µM (inactive)	> 100 µM (inactive)		> 100 µM (inactive)	83.4 µM (inactive)		> 100 µM (inactive)	> 100 µM (inactive)	> 100 µM (inactive)		> 100 µM (inactive)	6.76 µM (inactive)	> 100 µM (inactive)	> 100 µM (inactive)
CC12Oc3ccc4ccccc4c3CC1Cc1c(ccc3ccccc13)O2 (configuration not stated)	70 µM (inactive)	23 µM (inactive)		> 100 µM (inactive)	53 µM (inactive)	46.2 µM (inactive)	> 100 µM (inactive)		82.4 µM (inactive)			> 100 µM (inactive)	> 100 µM (inactive)	> 100 µM (inactive)					
CCN1C(=O)C(=C/C=C/c2ccc([N+](=O)[O-])cc2)C(=O)N(CC)C1=S		25.4 µM (inactive)	21.5 µM (inactive)	21 µM (inactive)	19.1 µM (inactive)	19.4 µM (inactive)	19.7 µM (inactive)	18.9 µM (inactive)	61.8 µM (inactive)	20.1 µM (inactive)	17.8 µM (inactive)	> 100 µM (inactive)	18.2 µM (inactive)	18.8 µM (inactive)	19.3 µM (inactive)	15.1 µM (inactive)	23.6 µM (inactive)	17.6 µM (inactive)	
O=C1CCC[C@]2(CCC[C@@H](O)C2)N1	> 100 µM (inactive)		> 100 µM (inactive)	> 100 µM (inactive)	> 100 µM (inactive)	> 100 µM (inactive)	> 100 µM (inactive)		> 100 µM (inactive)	> 100 µM (inactive)	> 100 µM (inactive)	> 100 µM (inactive)			> 100 µM (inactive)	> 100 µM (inactive)	> 100 µM (inactive)	> 100 µM (inactive)	
COc1ccc(OC)c(/C=C/C(=O)C(C)(C)C)c1	13.8 µM (inactive)	17.4 µM (inactive)	21 µM (inactive)	16.4 µM (inactive)	23.3 µM (inactive)	26.4 µM (inactive)	27.4 µM (inactive)	9.55 µM (inactive)	34.8 µM (inactive)	20.8 µM (inactive)	23.3 µM (inactive)	29.4 µM (inactive)	19.6 µM (inactive)			18.2 µM (inactive)			28.1 µM (inactive)
c1ccc([B-]2(c3ccccc3)NCCCO2)cc1	33.4 µM (inactive)	31 µM (inactive)	70.8 µM (inactive)	97.5 µM (inactive)	> 100 µM (inactive)	43.2 µM (inactive)	> 100 µM (inactive)	45.4 µM (inactive)	72.8 µM (inactive)	97.7 µM (inactive)	35.1 µM (inactive)	58.6 µM (inactive)	47 µM (inactive)	20 µM (inactive)	20.9 µM (inactive)	55 µM (inactive)		72.3 µM (inactive)	47.9 µM (inactive)
